Measurements reported in patent US9981988B2, “Polymorphic forms and co-crystals of a c-Met inhibitor” (AMGEN, INC., priority 2014, dated 2018).

Columns and labels:
Assay type in all cases: physicochemical
[1] = Solid state stability under accelerated stability testing conditions, HPLC
Experimental: High performance liquid chromatography (HPLC) analyses were performed on an Agilent 1100 or 1200 series HPLC equipped with a binary pump, diode-array detector, thermostated column compartment, and auto sampler. Separation and elution was achieved using a reverse-phase column and 0.1% triflouroacetic acid/water/acetonitrile mobile phase.
Solid samples of the free base monohydrate form of Compound M were placed under accelerated stability testing conditions (25° C./60% RH, 40° C./75% RH and 60° C./ambient RH) for 12 weeks.

[2] = Dynamic vapor sorption / moisture sorption
Experimental: Moisture sorption data was collected using a Surface Measurement Systems DVS-Advantage instrument. Equilibrium criteria were set at ±0.002% weight change in 5 minutes with a maximum equilibrium time of 360 minutes.

[3] = Equilibrium solubility in water and aqueous media; details: water, 22.5 °C, thermodynamic from solid

## COCCOc1cnc2ccn([C@H](C)c3nnc4c(F)cc(-c5cnn(C)c5)cn34)c(=O)c2c1 [free base monohydrate form of Compound M, 6-{(1R)-1-[8-fluoro-6-(1-methyl-1H-pyrazol-4-yl)[1,2,4]triazolo[4,3-a]pyridin-3-yl]ethyl}-3-(2-methoxyethoxy)-1,6-naphthyridin-5(6H)-one]
[1]; Week 2, 40/75
  Area % (215 nm), peak 2, RRT 1.09: 0.31 Area %
  Area % (215 nm), peak 3, RRT 1.25: 0.35 Area %
  Area % (215 nm), peak 4, RRT 1.53: <0.1 Area %
  Area % (215 nm), peak monohydrate, RRT 1.00: 99.35 Area %
  Total Impurities, Area % (215 nm): 0.65 Area %
[1]; Week 2, 60 C.
  Area % (215 nm), peak 2, RRT 1.09: 0.25 Area %
  Area % (215 nm), peak 3, RRT 1.25: 0.27 Area %
  Area % (215 nm), peak 4, RRT 1.53: 0.27 Area %
  Area % (215 nm), peak monohydrate, RRT 1.00: 99.21 Area %
  Total Impurities, Area % (215 nm): 0.79 Area %
[1]; Week 4, 25/60
  Area % (215 nm), peak 2, RRT 1.09: <0.1 Area %
  Area % (215 nm), peak 3, RRT 1.25: <0.1 Area %
  Area % (215 nm), peak 4, RRT 1.53: <0.1 Area %
  Area % (215 nm), peak monohydrate, RRT 1.00: 99.90 Area %
  Total Impurities, Area % (215 nm): 0.01 Area %
[1]; Week 4, 40/75
  Area % (215 nm), peak 2, RRT 1.09: <0.1 Area %
  Area % (215 nm), peak 3, RRT 1.25: <0.1 Area %
  Area % (215 nm), peak 4, RRT 1.53: <0.1 Area %
  Area % (215 nm), peak monohydrate, RRT 1.00: 99.86 Area %
  Total Impurities, Area % (215 nm): 0.14 Area %
[1]; Week 4, 60 C.
  Area % (215 nm), peak 2, RRT 1.09: <0.1 Area %
  Area % (215 nm), peak 3, RRT 1.25: <0.1 Area %
  Area % (215 nm), peak 4, RRT 1.53: <0.1 Area %
  Area % (215 nm), peak monohydrate, RRT 1.00: 99.90 Area %
  Total Impurities, Area % (215 nm): <0.1 Area %
[1]; Week 8, 25/60
  Area % (215 nm), peak 2, RRT 1.09: <0.1 Area %
  Area % (215 nm), peak 3, RRT 1.25: <0.1 Area %
  Area % (215 nm), peak 4, RRT 1.53: <0.1 Area %
  Area % (215 nm), peak monohydrate, RRT 1.00: 99.97 Area %
  Total Impurities, Area % (215 nm): <0.1 Area %
[1]; Week 8, 40/75
  Area % (215 nm), peak 2, RRT 1.09: <0.1 Area %
  Area % (215 nm), peak 3, RRT 1.25: <0.1 Area %
  Area % (215 nm), peak 4, RRT 1.53: <0.1 Area %
  Area % (215 nm), peak monohydrate, RRT 1.00: 99.92 Area %
  Total Impurities, Area % (215 nm): <0.1 Area %
[1]; Week 8, 60 C.
  Area % (215 nm), peak 2, RRT 1.09: <0.1 Area %
  Area % (215 nm), peak 3, RRT 1.25: <0.1 Area %
  Area % (215 nm), peak 4, RRT 1.53: <0.1 Area %
  Area % (215 nm), peak monohydrate, RRT 1.00: 99.97 Area %
  Total Impurities, Area % (215 nm): <0.1 Area %
[1]; Week 12, 25/60
  Area % (215 nm), peak 2, RRT 1.09: <0.1 Area %
  Area % (215 nm), peak 3, RRT 1.25: <0.1 Area %
  Area % (215 nm), peak 4, RRT 1.53: <0.1 Area %
  Area % (215 nm), peak monohydrate, RRT 1.00: 100.0 Area %
  Total Impurities, Area % (215 nm): <0.1 Area %
[1]; Week 12, 40/75
  Area % (215 nm), peak 2, RRT 1.09: <0.1 Area %
  Area % (215 nm), peak 3, RRT 1.25: <0.1 Area %
  Area % (215 nm), peak 4, RRT 1.53: <0.1 Area %
  Area % (215 nm), peak monohydrate, RRT 1.00: 100.0 Area %
  Total Impurities, Area % (215 nm): <0.1 Area %
[1]; Week 12, −20 C.
  Area % (215 nm), peak 2, RRT 1.09: <0.1 Area %
  Area % (215 nm), peak 3, RRT 1.25: <0.1 Area %
  Area % (215 nm), peak 4, RRT 1.53: <0.1 Area %
  Area % (215 nm), peak monohydrate, RRT 1.00: 100.0 Area %
  Total Impurities, Area % (215 nm): <0.1 Area %
[1]; over 12 weeks at 25° C. and 60% relative humidity or at 40° C. and 75% relative humidity
  physical form: remains in substantially the same physical form
[2]; between about 40% and about 90% relative humidity
  total weight gain: about 0.2 wt. %
[2]; dynamic vapor sorption
  hygroscopicity: non-hygroscopic
[3]; pH 4.09, water, Sample 2, duration 138 h, isolation method 1, pH 4.09, about 20 to 25° C.
  solubility at 138 h: 259 µg/mL
[3]; pH 6.85, water, Sample 3, duration 69 h, isolation method 2, pH 6.85, about 20 to 25° C.
  solubility at 69 h: 262 µg/mL
